# Patent US20260217702A1, “NOVEL IMIDAZOQUINOLINES WITH IMMUNOSTIMULATORY EFFECTS” (Synovo GmbH, priority 2022, published 2026)
# Assays:
# IFNa relative to TNFa = experiment: Stimulation of cytokines in vivo (plasma cytokines, cytometric bead array); conditions: female C57B6/J mice, i.p., 12 μmol/kg, citrate in saline, EDTA plasma at various times; reference Resiquimod
# Experimental: Female C57B6/J mice ca 18-20g ca. 8 weeks old are treated i.p. with E1 or E13 (citrate in saline) at a dose of12 μmol/kg. The reference substance is Resiquimod. At various times after application blood samples of approximately 25 μl are taken from the tail vein. The resulting EDTA plasma is analysed for cytokines using a cytometric bead array.
# CT26 tumor = experiment: Application in cancer therapy: CT26 tumor in BALBc mice; type: in vivo; conditions: i.p.
# Experimental: Female BALBc mice carrying the CT26 tumor type are monitored until tumors are 100-150 mm^3 in volume. Animals are treated via injection i.p. with substances formulated at citrate salts in saline solution. Doses for E 1 are 3, 6 and 12 μmol/kg. At 12 μmol/kg, weight loss of ca. 5% is observed within 24 h. […] In a similar format, Female C57B6 mice carrying the MC38 tumor type co-injected with myofibroblasts (5 fibroblasts: 1 tumor cell-50,000, tumor cells) are monitored until tumors are 100-150 mm^3 in volume. Animals are treated via injection i.p. with either Vehicle or a Rat anti-PD-1 antibody (RMP1-14-CP157) 100 μg, or peritumoral 20 or 50 μg every 96 h. Certain groups receive the antibody alone, or receive in addition, E1 6 μmol/kg or E13 6 μmol/kg, other groups receive E1 and E13 alone at the same dose. Weight loss is similar to the study above and is between 5 and 8% of the starting weight for all treatments. Tumors treated with E1 or E13 alone remain static or decrease in size by up to 30% in size for up to 72 h following treatment. Tumors treated with E1 or E13 in combination with antiPD-1 decline (2 from 8) or are eliminated completely (6 from 8 animals) after the third antibody treatment.
"weight loss (CT26 tumor; female BALBc mice with CT26 tumor, citrate salt in saline, 12 μmol/kg, within 24 h)",SMILES,secretion of IFNa relative to TNFa (ratio) compared to the reference (IFNa relative to TNFa),"tumor size following treatment (CT26 tumor; CT26 tumors 100-150 mm^3 at start, doses 3, 6 and 12 μmol/kg, for up to 72 h following treatment)"
,CCCCc1nc2c(N)nc3ccccc3c2n1CCC1CCN(C(=O)CN(C)CC(=O)N(C)[C@H]2C[C@@H](C)O[C@@H](C[C@@H]3[C@@H](C)[C@H](O[C@H]4C[C@@](C)(OC)[C@@H](O)[C@H](C)O4)[C@@H](C)C(=O)O[C@H](CC)[C@@](C)(O)[C@H](O)[C@@H](C)N(C)C[C@H](C)C[C@@]3(C)O)[C@@H]2O)CC1 [Example E13],higher ratio,
ca. 5%,"CCCCc1nc2c(N)nc3ccccc3c2n1CC1CCNCC1 [Example E1, 2-butyl-1-(piperidin-4-ylmethyl)-1H-imidazo[4,5-c]quinolin-4-amine]",higher ratio,remain static in size
